Data: PMC5413848, “Optimization of intestinal microsomal preparation in the rat: A systematic approach to assess the influence of various methodologies on metabolic activity and scaling factors” (Biopharmaceutics & Drug Disposition, 2017)
Values joined by “and” are separate entries in the source; they are usually repeats but may differ in a detail not shown here. Identical values can stand only once.

Experiments:
[1] = design: method as in PMID 11587497; settings: cited from earlier work
[2] = design: method as in PMID 11587497; settings: Wistar rat intestinal microsomes prepared by elution, 30 cm intestine; cited from earlier work
[3] = CYP activity: testosterone metabolite formation in rat intestinal microsomes; format: in vitro ADME; settings: for Maximal rate of testosterone metabolite formation: 100 μM testosterone, 1 mg/ml
Description: The CYP enzyme activities were determined for the in‐house and commercial intestinal microsomes using the probe substrate testosterone. Testosterone metabolites and the respective rat cyp isoforms responsible for their formation are shown in Supplemental material Table 1 33. […] The reactions were initiated by the addition of testosterone. Samples were taken at 5, 15, 30 and 60 min. […] Following optimization of the bioanalytical methodology to improve reproducibility and sensitivity based on increasing the efficiency of protein precipitation 37, the samples were quenched 1:2 (sample: quench) in ice cold acetonitrile containing internal standard (1 μM 11‐β OH TEST) and stored overnight at −20°C. The following day, the plates were spun at 3000 rpm for 15 min, and 50 μl supernatant was diluted in 200 μl UPH2O. Samples were quantified using a Waters Acquity UPLC system with a PDA coupled to a G2 Q‐ToF MS (Waters, Milford, MA, USA), and a Acquity UPLC BEH C18 column, 130 Å, 1.7 μm, 2.1 mm × 100 mm and Acquity UPLC column with an in‐Line Filter Kit made up of the same phase (Waters). The sample (25 μl) was detected using an electrospray interface in positive mode, and source and desolvation temperatures, and desolvation and cone gas flows were 120°C and 400°C, and 800 l/h and 20 l/h, respectively. The cone voltage was 30 V. The elution times and LLOQ of testosterone and its hydroxy metabolites are shown in Supplemental material Table 2. The quantification of testosterone metabolites listed in Supplemental material Table 1 was made using standard curves (5–5000 pmol/ml) prepared from no cofactor added microsomes and prepared identically to the assay samples.

[4] = in vitro; settings: Han-Wistar, rat, microsomes, pH 7.4, CL int,u, in-house combined cofactors
Description: (§1) Microsomes prepared previously via the optimized method (preparation method 8) were combined to form pool 1 (n = 9 rats). A second set of three preparations was combined to form pool 2 (n = 9 rats). Intestinal microsomes were also prepared from intestinal tissue flash‐frozen in tubes on arrival in the laboratory and kept at −80°C until thawing on ice on the morning of preparation, (n = 3 occasions of n = 3 samples). In addition, for comparative purposes microsomes were also prepared from scraped intestinal tissues. Microsomes were prepared after cutting along the length of intestine and gently scraping the intestinal epithelial with a glass microscope slide (n = 1 occasion, n = 3 samples). Commercially available pooled intestinal microsomes were also used as a comparator to those produced in‐house. […] The microsomes were stored at −80°C prior to experiments.
The microsomes prepared from the final optimized preparation method (method 8) were measured for CYP content on the day of preparation prior to storage. These microsomes (n = 3 samples prepared on n = 3 separate occasions) were subsequently thawed on ice and pooled for pool 1. The pool 1 microsomes were then assayed for testosterone and 4‐NP metabolite formation. Additional intestinal microsomes were created using the identical methodology with the same number of rat intestinal samples (n = 3 samples prepared on n = 3 occasions) and assayed for testosterone and 4‐NP metabolite formation as well as for CYP content on the day of preparation before storage. The microsomes from this second set of preparations were then thawed and pooled to form pool 2.
(§2) Midazolam and 7‐hydroxycoumarin were both incubated at 1 mg/ml and 0.5 mg/ml. The microsomes were incubated on ice with alamethacin (50 μg/mg) for 15 min. […] The samples were quenched with ice cold acetonitrile (3:1 quench to sample) containing the internal standard (AZ1). The total incubation time was 40 min. Quenched samples were stored overnight at −20°C. The following day, the samples were diluted with 200 μl UPH2O, and spun at 3000 rpm (Sorvall legend RT centrifuge) for 15 min, and 200 μl of supernatant taken for analysis.

[5] = Substrate depletion in commercial Han Wistar rat intestinal microsomes, combined or individual CYP and UGT cofactors; settings: for Main route of elimination (CYP vs UGT cofactors): commercial Han Wistar microsomes, individual cofactors; for microsomal CLint at 1 μM: male, Han Wistar, rat, pH 7.4, CL int,u, Commercial Han Wistar pool, 1 mg/ml, 1 μM compound
Description: as §1, §2

[6] = Nonspecific protein binding in rat intestinal microsomes (96-well micro-equilibrium dialysis)
Description: Nonspecific protein binding was determined in microsomes (1 mg/ml) using high throughput 96‐well micro‐equilibrium dialysis methodology (HTDialysis, LLC, Gales Ferry, CT, USA). These experiments used dialysis membrane strips with 12–14 kDa molecular mass cut‐off (HTDialysis). The microsomes were constituted in 0.1 M phosphate buffer (pH 7.4). The final concentrations of the test compounds was 1 μM. Microsomes containing the test compound were aliquoted into donor wells in triplicate, and buffer placed in the acceptor wells. The plate was incubated at 37°C and left to equilibrate on a plate shaker (450 rpm) for 4 h. Samples from both the acceptor and donor sides of the membrane were then transferred to 96‐well plates and quenched in acetonitrile containing internal standard (AZ1). The same sample preparation and LC–MS/MS methodology was used as described for the microsomal incubations. Compound MS transitions and retention times are reported in Supplemental material Table 3. Fuinc was calculated as the ratio of acceptor to donor both normalized for internal standard as described previously 41. Correction for protein binding for depletion experiments undertaken at 0.5 mg/ml were made using Equation (4).
(4) fumic,2=1/[P]mic,2/Pmic,1×1−fumic,1/fumic,1+1
where mic,1 denotes 1 mg/ml and mic,2 is 0.5 mg/ml.

[7] = In vitro-in vivo extrapolation of rat intestinal unbound intrinsic clearance (CL int,u,gut); format: in vitro ADME
From the text: The CL int,u values were scaled to give CL int,u,gut using scaling factors for the corresponding microsomal pool (Eq. (5)). The use of scalars from the mean of both pools was also investigated, and was also used for scaling of commercial microsome CL int,u data.
(5) CLint,u,G=CLuint⋅MPPGI⋅Intestine Segment Weight

[8] = previous study, corrected for fu inc of this study; cited from earlier work
[9] = Pool 1, FT (1 freeze-thaw cycle)

## O=[N+]([O-])c1ccc(O)cc1 [4‐NP, 4‐nitrophenol]
[1]
  4-NP glucuronidation, previously reported: 7 ± 0.81 nmol/min/mg

## C[C@]12CC[C@H]3[C@@H](C[C@@H](O)C4=CC(=O)CC[C@@]43C)[C@@H]1CC[C@@H]2O [6β‐OH TEST]
[2]
  6β-OH TEST formation, previously reported: 289 ± 5 pmol/min/mg
[3]; Commercial HW, FT
  Maximal rate of testosterone metabolite formation: 190 ± 53.5 pmol/min/mg
[3]; Commercial SD, FT
  Maximal rate of testosterone metabolite formation: 167.2 ± 43.7 pmol/min/mg
[3]; [9]
  Maximal rate of testosterone metabolite formation: 85.3 ± 32.5 pmol/min/mg
[3]; Pool 2, FT
  Maximal rate of testosterone metabolite formation: 187.5 pmol/min/mg and 187.5 ± 77.8 pmol/min/mg
[3]; Pool 2, Fresh
  Maximal rate of testosterone metabolite formation: 113.3 pmol/min/mg and 113.3 ± 30.9 pmol/min/mg
[3]; Scraping, FT
  Maximal rate of testosterone metabolite formation: 66.1 pmol/min/mg and 66.1 ± 4.8 pmol/min/mg
[3]
  Fold higher mean metabolite formation in pool 2 (vs pool 1): 2.2 fold

## C[C@]12CC[C@H]3[C@@H](CCC4=CC(=O)CC[C@@]43C)[C@@H]1C[C@@H](O)[C@@H]2O [16α‐OH TEST]
[3]
  Fold higher mean metabolite formation in pool 2 (vs pool 1): 2.5 fold

## C[C@]12CCC(=O)C=C1CC[C@@H]1[C@@H]2CC[C@]2(C)C(=O)CC[C@@H]12 [Androstenedione]
[3]; Commercial HW, FT
  Maximal rate of testosterone metabolite formation: 314.5 ± 55.3 pmol/min/mg
[3]; Commercial SD, FT
  Maximal rate of testosterone metabolite formation: 371.6 ± 7.2 pmol/min/mg
[3]; [9]
  Maximal rate of testosterone metabolite formation: 560.7 ± 6.6 pmol/min/mg
[3]; Pool 2, FT
  Maximal rate of testosterone metabolite formation: 548.7 ± 188.7 pmol/min/mg
[3]; Pool 2, Fresh
  Maximal rate of testosterone metabolite formation: 429.9 ± 30.9 pmol/min/mg
[3]; Scraping, FT
  Maximal rate of testosterone metabolite formation: 457.0 ± 60.4 pmol/min/mg

## CCCCc1nc(Cl)c(CO)n1Cc1ccc(-c2ccccc2-c2nn[nH]n2)cc1 [Losartan]
[4]; Pool 1
  microsomal CLint at 1 μM: 34.8 µL/min/mg
[4]; Pool 2
  microsomal CLint at 1 μM: 14.8 µL/min/mg
[5]
  Main route of elimination (CYP vs UGT cofactors): glucuronidation
[5]; CYP cofactors, CYP cofactors only
  microsomal CLint at 1 μM: 0.1 µL/min/mg
[5]; Combined cofactors, combined CYP and UGT cofactors
  microsomal CLint at 1 μM: 10 µL/min/mg
[5]; UGT cofactors, UGT cofactors only
  microsomal CLint at 1 μM: 9 µL/min/mg
[6]; rat, 4 h, 1 μM, pH 7.4
  fuinc: 0.87
[7]; microsomes
  CL int,u,gut, Mean Han Wistar commercial microsomes: 0.04 L/h

## Cc1ncc2n1-c1ccc(Cl)cc1C(c1ccccc1F)=NC2 [Midazolam]
[4]; Pool 1, pool 1, 1 mg/ml, 1 μM compound, CYP and UGT cofactors
  microsomal CLint at 1 μM: 22 µL/min/mg
[4]; Pool 2, pool 2, cell marked with footnotes a and b (1 mg/ml and 0.5 mg/ml), 1 μM compound
  microsomal CLint at 1 μM: 18.2 µL/min/mg
[8]
  CL int,u in commercially available Sprague-Dawley microsomes: 8.3 µL/min/mg
[5]
  Main route of elimination (CYP vs UGT cofactors): CYP mediated metabolism
[5]; microsomes, CYP cofactors, CYP cofactors only
  microsomal CLint at 1 μM: 18.2 µL/min/mg
[5]; microsomes, Combined cofactors, combined CYP and UGT cofactors
  microsomal CLint at 1 μM: 12.3 µL/min/mg
[5]; microsomes, UGT cofactors, UGT cofactors only
  microsomal CLint at 1 μM: 2.8 µL/min/mg
[6]; rat intestinal microsomes 1 mg/ml, compound 1 μM
  fuinc: 0.72
[7]; mean of pool 1 and pool 2 CL int,u and scaling factors
  CL int,u,gut, Combined in-house pools: 6.12 L/h
[7]; pool 1, pool specific scaling factors, threshold 0.01 l/h
  CL int,u,gut, Pool 1 Mean: 4.13 L/h
[7]; pool 2, pool specific scaling factors, threshold 0.01 l/h
  CL int,u,gut, Pool 2 Mean: 7.36 L/h
